One data set concerns human Aha1 mRNA. Kind of data set: siRNA transfection screening (siAha1 vs siGL3 control, bDNA assay of Aha1/GAPDH mRNA). Format: cell-based. The protocol:
For the quantification of cellular mRNA levels bDNA (branched DNA) assays were performed which enable the detection of individual mRNA levels. To this end, a defined number of the cells to be analyzed was seeded into 96-well plates and allowed to attach over night. On the next day, the cells were transfected with siRNA.
After further 24 hours, the mRNA species were quantified using the QuantiGene Plex 2.0 assay kit according to the manufacturers instructions (Affymetrix Inc., Santa Clara, Calif., USA). In brief, cell lysates were transferred to a capture plate in the presence of a gene-specific probe set and incubated at 53° C. over night. After washing, the wells were sequentially incubated at 53° C. with an amplifier agent and an alkaline phosphatase (AP)-linked label probe with a washing step in between. Subsequently, the luminescent AP substrate dioxitane was added and incubated for 30 min at 53° C. Luminescence was assayed using an InfiniteF200 luminescence reader (Tecan Austria GmbH, Groding, Austria).
In order to analyze the potential CPPs for their ability to transfect siRNA into mammalian cells an increasing peptide concentration (from 1 μM to 20 μM) was employed along with a constant siRNA concentration (100 nM). This range of peptide concentrations was used as it had been shown that positively charged peptides such as TAT are internalized into cells in ranges up to 10 μM and remain in intracellular membrane compartments without significant egress into the cytosol (Duchardt, F. et al. (2007) Traffic 8, 848-866). […] A concentration of 10 nM siRNA is in the saturation range as determined in control experiments using the DharmaFECT transfection reagent (Dharmacon, Inc., Lafayette, Colo., USA; data not shown).
The siRNA oligonucleotides employed were directed against human Aha1 mRNA (Panaretou, B. et al. (2002) Mol. Cell 10, 1307-1318) or against luciferase mRNA as a control.
Complexes of siRNA and the respective peptides were formed in OptiMEM medium and incubated for 15 minutes at room temperature. The cells were incubated in the presence of the complexes for three hours in OptiMEM. After washing, the cells were incubated for further 21 or 45 hours in normal growth medium. Thereafter, the levels of Aha1 mRNA and a reference mRNA (i.e. GAPDH mRNA) were measured by means of a bDNA assay. These assays were performed with cells that were transfected with siAHA1 and with a control siRNA (siGL3, luciferase), respectively.
As a measure for specific RNAi, the reduction of Aha1 mRNA levels relative to GAPDH mRNA levels was compared in siAHA1-transfected cells and siGL3-transfected cells. Specific siRNA mediated transfection causes a reduction in Aha1/GAPDH mRNA values in siAhA1-compared to siGL3-transfected cells. FIG. 3 depicts the screening readout of these assays: the Aha1/GAPDH mRNA values of non-transfected control cells were set to 100% (for each assay), and the Aha1/GAPDH mRNA values of siAha1- or siGL3-transfected cells were expressed relative to that. For this normalized data set, the differences between the respective Aha1/GAPDH mRNA levels of siAha1- and siGL3-transfected cells were determined. Specific peptides caused a significant reduction in siAha1 transfection without reducing siGL3 transfections, which results in positive difference values. The more pronounced these values are, the more specific RNAi is observed (cf. FIG. 3).

Data set [1] has as its system MCF7 cells. The data set is described as follows: FACS analysis of internalization of FITC-labeled peptides. Type of data set: cell-based, human. The protocol: For FACS analysis, MCF7 cells (ATCC number HTB-22) were detached by 15 min incubation in accutase (an enzyme solution having proteolytic and collagenolytic activities; commercially available from various suppliers). After washing in FACS buffer (PBS containing 5% FCS), the cells were seeded in a 96 well, rounded bottom multi-well plate (Cat. No. 3799, Corning Inc., Corning, N.Y. USA) in a final density of 3×10^5 cells/ml and used immediately. The cells were incubated in the respective presence of 1 μM, 5 μM and 10 μM FITC-labeled peptides in OptiMEM medium for 3 hours at 37° C. Afterwards, the cells were washed in FACS buffer and incubated in proteinase K (0.02 mg/ml) containing buffer for 30 minutes at 37° C. The cells were washed twice and analyzed with the FACSCanto II (BD Biosciences; San Jose, Calif., USA) using the FITC channel.
For determining the internalization behavior of the CPPs identified in the screening procedures FITC-labeled derivates of said peptides (at 1 μM, 5 μM, and 10 μM, respectively) were analyzed by means of FACS. The following peptides were used: NRTN as a transfecting peptide, WNT16 as a non-transfecting peptide, FALL as a toxic peptide and TAT as a reference (positive control) (cf. FIG. 12). MCF7 cells were incubated in the presence of the fluorescent peptide derivatives for 3 hours at 37° C. in OptiMEM. Subsequently, the cells were treated with proteinase K for 30 minutes at 37° C. to remove surface bound peptides, and thus to ensure the monitoring only of internalized peptides. The cells were then washed in PBS and analyzed by FACS.
(In general: A flow cytometer gives signals particle by particle.)

For data set [2], the system named is MCF7 cells.
Procedure: (§1) MCF7 cells were seeded at a density of 15.000 cells per well in 96 well plates. The cells were incubated for 24 hours at 37° C., 5% CO2 and 85% humidity in RPMI 1640 medium supplemented with 10% FCS (fetal calf serum) and L-glutamine. For functional assays, the cells were washed in OptiMEM medium and RPMI 1640 was replaced with OptiMEM (all reagents were purchased from Invitrogen Corporation, Carlsbad, Calif., USA). Complexes of siRNAs and peptides were formed by incubation of 100 nM siRNA with the indicated peptide concentrations in OptiMEM for 30 minutes at room temperature. The complexes were added to the cells and incubated for 3 hours. Subsequently, OptiMEM was replaced with normal RPMI 1640 growth medium. The cells were incubated for further 21 hours for generating bDNA lysates, and for further 45 hours for performing CellTiter-Glo or CytoTox-Glo assays (cf. below).
(§2) In order to measure the number of living cells the CellTiter-Glo Luminescent Cell Viability Assay (Promega Corporation, Madison, Wis., USA) was used according to the protocol of the manufacturer. The cells were incubated for 48 hours in the presence of peptides and siRNAs. Subsequently, the cells are lysed, and a luminescent signal proportional to the amount of ATP present is generated which, in turn, is proportional to the number of living cells present. Luminescence was analyzed in an InfiniteF200 luminescence reader.
(§3) Based on this observation, GAPDH mRNA levels were used as a general readout for toxicity: an average measurement of 100% GAPDH mRNA relative to the medium control was considered as non-toxic, values between 99% and 70% as moderate toxic, and values of less than 70% as toxic (cf. FIG. 3).
(§4) Similarly, peptides resulting in GAPDH mRNA values >70% were classified as “nontoxic”, whereas peptides that caused a reduction of GAPDH mRNA to lesser values were termed “toxic”.
Data set [3] concerns MCF7 cells. The data set is described as follows: growth inhibition/toxicity (CellTiter-Glo viability, GAPDH mRNA levels). (In general: Cellular ATP, detected with luciferase, serves as a proxy for viable cell number.)
Procedure: as §1, §2, §3, §4

Entries after “also recorded” stand apart in the source; their conditions may differ.

We go through one sequence from US9303076B2, “Cell-penetrating peptides and uses thereof” (Hoffmann-La Roche Inc., priority 2010, dated 2016).

“GAAEAAARVYDLGLRRLRQRRRLRRERVRA (NRTN peptide sequence; listed as Homo sapiens)”: the “siRNA transfection activity (specific Aha1 mRNA reduction relative to GAPDH mRNA)” value with human Aha1 mRNA (MCF7 cells, 100 nM siRNA, peptide 1 μM to 20 μM) is listed as “even more effective reduction of Aha1 mRNA levels”. Also, in the data set with human Aha1 mRNA (NRTN: at lower non-toxic concentrations), the “transfection efficacy compared with TAT / control peptides” value is “higher than that of all (positive) control peptides analyzed; also recorded: efficacy even higher than TAT”. In addition, in the data set with MCF7 cells [1] (FITC-labeled peptide 1, 5, 10 μM, 3 hours at 37° C., proteinase K treated), the “internalization into cells (FACS, FITC channel)” value is on record as “internalized into MCF7 cells”. Moreover, the “change of internalization with concentration” value with MCF7 cells [1] (increasing the concentration from 5 μM to 10 μM) is reported as “strong increase in internalization”. In the data set with MCF7 cells [2], the “peptide concentration at which cell growth/viability was affected” value is “above 10 μM”. The “interference with cell viability at doses effective for Eg5 knockdown” value with MCF7 cells [3] (<10 μM) was “does not interfere with cell viability”. Further, in the data set with MCF7 cells [3] (MCF7 cells, peptide 1 μM to 20 μM), the “cell viability / growth inhibition / toxicity (CellTiter-Glo, GAPDH mRNA levels)” value is listed as “only minor effects on cell viability”.
